Laboratory results from patent publication US20090318500A1, “4-(2, 6-Dichloro-benzoylamino)-1H-pyrazole-3-carboxylic acid (1-methanesulphonyl-piperidin-4-yl)-amide for the Treatment of Cancer” (Astex Therapeutics limited, priority 2006, published 2009).
pIC50: −log10 of the molar value. Read-outs that look alike come from different tables or passages of the source.

What was measured:
[1] = test system: malignant cells from B-cell chronic lymphocytic leukemia (B-CLL); conditions: in vitro; cited from earlier work
CDK1/CyclinB = target: T1, CDK1/CyclinB (Homo sapiens, UniProt P06493); assay: Activated CDK1/CyclinB kinase inhibitory activity assay; format: biochemical
T1 construct: purchased Upstate Discovery
Method: CDK1/CyclinB assay is identical to the CDK2/CyclinA above except that CDK1/CyclinB (Upstate Discovery) is used and the enzyme is diluted to 6.25 nM.

[2] = test system: human tumour derived cell lines; assay: Xenograft studies; format: in vivo, nude mice; conditions: sub-cutaneous xenografts, dosed orally
Excerpt: These biomarkers include suppression of phosphorylation of substrates of the cyclin dependent kinases e.g. retinoblastoma protein. The compound is effective when given in a range of different schedules including chronic dosing for several weeks.

[3] = Vapour sorption/desorption analysis; format: physicochemical; conditions: 25 °C
Method: Approximately 20 mg of sample was placed into a wire-mesh vapour sorption balance pan and loaded into an ‘IgaSorp’ vapour sorption balance (Hiden Analytical Instruments) held at 25±0.1° C. The sample was then dried by maintaining a 0% humidity environment (using mass flow control apparatus) until no further weight change was recorded. Subsequently, the sample was then subjected to a ramping profile from 0-90% relative humidity (% RH) at 10% RH increments, maintaining the sample at each step until equilibration had been attained (99.5% step completion).
Upon reaching equilibration, the % RH within the apparatus was ramped to the next step and the equilibration procedure repeated. After completion of the sorption cycle, the sample was then dried using the same procedure. The weight change during the sorption/desorption cycles was then monitored, allowing for the hygroscopic nature of the sample to be determined.

HCT-116 cell line = assay: Anti-proliferative activity, Alamar Blue assay; format: cell-based, human; conditions: for pIC50: read-out: HCT-116 cell proliferation IC50, 72 hours with compound
Method: (§1) Inhibition of cell growth is measured using the Alamar Blue assay (Nociari, M. M, Shalev, A., Benias, P., Russo, C. Journal of Immunological Methods 1998, 213, 157-167). The method is based on the ability of viable cells to reduce resazurin to its fluorescent product resorufin. For each proliferation assay cells are plated onto 96 well plates and allowed to recover for 16 hours prior to the addition of inhibitor compounds for a further 72 hours. At the end of the incubation period 10% (v/v) Alamar Blue is added and incubated for a further 6 hours prior to determination of fluorescent product at 535nM ex/590nM em. In the case of the non-proliferating cell assay cells are maintained at confluence for 96 hour prior to the addition of inhibitor compounds for a further 72 hours. The number of viable cells is determined by Alamar Blue assay as before. Cell lines can be obtained from the ECACC (European Collection of cell Cultures).
as §1, with “535 nM ex/590 nM” for “535nM ex/590nM”, “EC ACC” for “ECACC”

[4] = Determination of oral bioavailability; format: in vivo; conditions: balb/c, mouse, plasma, 5 mg/kg, mice
Method: The oral bioavailability of the compound of formula (I) may be determined as follows.
The test compound is administered as a solution both I.V. and orally to balb/c mice at the following dose level and dose formulations; • 1 mg/kg IV formulated in 10%DMSO/90% (2-hydroxypropyl)-β-cyclodextrin (25% w/v); and • 5 mg/kg PO formulated in 10% DMSO/20% water/70% PEG200.
At various time points after dosing, blood samples are taken in heparinised tubes and the plasma fraction is collected for analysis. The analysis is undertaken by LC-MS/MS after protein precipitation and the samples are quantified by comparison with a standard calibration line constructed for the test compound. The area under the curve (AUC) is calculated from the plasma level vs time profile by standard methods. The oral bioavailability as a percentage is calculated from the following equation: […]

[5] = test system: transcription in HCT-116 cells

T1 sequence (P06493 whole entry): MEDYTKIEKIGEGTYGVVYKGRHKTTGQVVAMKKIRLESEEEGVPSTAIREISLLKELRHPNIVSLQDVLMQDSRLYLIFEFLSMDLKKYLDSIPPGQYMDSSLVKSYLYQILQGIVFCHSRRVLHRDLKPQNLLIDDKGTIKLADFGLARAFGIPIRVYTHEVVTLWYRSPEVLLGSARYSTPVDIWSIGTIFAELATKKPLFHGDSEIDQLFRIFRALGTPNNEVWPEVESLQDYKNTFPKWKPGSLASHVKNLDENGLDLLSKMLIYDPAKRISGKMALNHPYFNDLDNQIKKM
T1 sequence (P14635 whole entry partner): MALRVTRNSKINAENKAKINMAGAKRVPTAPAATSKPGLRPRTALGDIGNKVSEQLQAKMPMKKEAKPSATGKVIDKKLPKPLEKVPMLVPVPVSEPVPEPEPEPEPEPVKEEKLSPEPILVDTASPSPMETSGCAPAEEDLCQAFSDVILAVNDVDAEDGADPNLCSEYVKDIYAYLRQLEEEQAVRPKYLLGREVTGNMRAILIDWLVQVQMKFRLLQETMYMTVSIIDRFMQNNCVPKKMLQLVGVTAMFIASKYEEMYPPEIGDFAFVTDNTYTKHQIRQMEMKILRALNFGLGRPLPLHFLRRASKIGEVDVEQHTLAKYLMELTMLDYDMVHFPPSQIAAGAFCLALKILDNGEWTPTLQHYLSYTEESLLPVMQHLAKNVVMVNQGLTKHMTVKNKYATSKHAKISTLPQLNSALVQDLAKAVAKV

pIC50 (CDK1/CyclinB)	Weight loss during initial drying ([3]; 0% RH)	Total weight increase ([3]; upon equilibration at 90% RH)	pIC50 (HCT-116 cell line)	pIC50 (HCT-116 cell line; listed as Compound of the Invention)	bioavailability [4]	IC50 for transcription higher than IC50 for proliferation [5]	Compound	Apoptosis of B-CLL cells [1]	Effect on tumour growth in xenografts [2]	More potent anti-proliferative effect on HCT-116 compared to difluoro-analogue (HCT-116 cell line)
–	–	–	–	–	–	–	CC[C@H](CO)Nc1nc(NCc2ccccc2)c2ncn(C(C)C)c2n1 [CYC 202]	induce in vitro apoptosis	–	–
–	–	–	–	–	–	–	CN1CC[C@H](c2c(O)cc(O)c3c(=O)cc(-c4ccccc4Cl)oc23)[C@H](O)C1 [Flavopiridol]	induce in vitro apoptosis	–	–
> 6.00	approximately 0.01%	0.24%	> 6.00	6.96	40 to 50%	~100 fold	CS(=O)(=O)N1CCC(NC(=O)c2n[nH]cc2NC(=O)c2c(Cl)cccc2Cl)CC1 [compound of the invention, 4-(2,6-dichloro-benzoylamino)-1H-pyrazole-3-carboxylic acid (1-methanesulphonyl-piperidin-4-yl)-amide]	–	inhibition of tumour growth	6-7 fold
